One assay deals with T1, full-length Beclin1 (Homo sapiens, UniProt Q14457).
T1 construct: His tag (pQTEV vector, TEV site) (cleaved yes); made in house; host or cells: Escherichia coli BL21 (DE3), by analogy with the DIRAS2/3 chimera
In words: SPR affinity of biotinylated D3S2 peptide for Beclin1. The class given is binding. Particulars: SPR Biacore 3000, 25 °C, c-terminal biotinylated D3S2 on SA chip, Beclin1 10 to 270 nM, Langmuir 1:1 fit, unit inferred. On the procedure:
A DIRAS2/3 chimera construct was generated by replacing the amino acid residues 92–108 of DIRAS3 with 62–78 amino acid residues of DIRAS2. The DIRAS2/3 chimera construct was cloned into pQTEV vector using ligation-independent cloning and transformed into BL21 (DE3) Escherichia coli cells. Cells carrying the DIRAS2/3 chimera constructs were grown at 37 °C until the OD at 600 nm (OD600) reached to 0.6 and protein expression was induced with 0.5 mM isopropyl β-D-1-thiogalactopyranoside. Cultures were grown for an additional 12 h at 18 °C and harvested by centrifugation. Cells were resuspended in lysis buffer containing 50 mM Tris (pH 7.5), 150 mM sodium chloride, 10 mM magnesium chloride, 10 mM Imidazole, 5% glycerol and 1 mM β-mercaptoethanol and lysed using a cell disrupter (Constant Systems, Northamptonshire, UK). The lysate was cleared by centrifugation at 35,000 × g for 2 h at 4 °C. Cleared lysate was passed through a 0.22-μm filter. […]
SPR experiments were performed using a Biacore 3000 optical biosensor (GE Healthcare/Biacore AB) at 25 °C. […] Reference and buffer corrected SPR response was collected and the data was analyzed using Biacore evaluation software. The kinetic parameters and KD value were determined by fitting the sensorgram to a Langmuir 1:1 binding model (BIAevaluation version 4.1.1, GE Healthcare/Biacore AB, Marlborough, MA, USA).

Assay [1] has as its target T2, Beclin1 recombinant protein (UniProt Q14457 1-450).
T2 construct: Beclin1 (BECN1); called full-length Beclin1 in the SPR experiment; The construct is not described beyond 'produced in a similar fashion'; For the chimera the His tag was cleaved with TEV protease; whether this also holds for Beclin1 is surmised; also called BECN1; full-length Beclin1; source: recombinant
Description: peptide or protein array; 15mer peptide array of DIRAS3 residues 1-229 on membrane, overlaid with recombinant Beclin1 at 1 µg/mL in 1% BSA/PBS, 2 h at room temperature; detected with primary and secondary antibody, HRP. The conditions noted are these: both partners purified.

Ends that are not written are not given here.

The record followed here is publication PMC6521623, “DIRAS3-Derived Peptide Inhibits Autophagy in Ovarian Cancer Cells by Binding to Beclin1” (Cancers, 2019).

T1 sequence (Q14457 whole entry): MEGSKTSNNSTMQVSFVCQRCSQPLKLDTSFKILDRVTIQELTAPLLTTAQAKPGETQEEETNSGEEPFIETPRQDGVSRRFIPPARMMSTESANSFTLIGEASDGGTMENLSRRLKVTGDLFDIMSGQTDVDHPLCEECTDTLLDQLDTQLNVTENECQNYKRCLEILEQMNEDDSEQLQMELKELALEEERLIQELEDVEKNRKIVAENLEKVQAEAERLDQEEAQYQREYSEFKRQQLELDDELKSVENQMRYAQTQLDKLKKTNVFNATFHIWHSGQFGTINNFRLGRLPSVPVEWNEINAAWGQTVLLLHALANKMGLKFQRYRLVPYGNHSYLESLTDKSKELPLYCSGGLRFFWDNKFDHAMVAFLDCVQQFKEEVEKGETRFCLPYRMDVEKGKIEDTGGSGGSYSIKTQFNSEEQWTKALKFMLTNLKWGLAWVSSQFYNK
T2 sequence (Q14457 whole entry): as above

As for SKSGDGNRALQRHVIAR [D3S2], the kon at full-length Beclin1 (read-out: association rate constant (ka)) is 62200 M⁻¹ s⁻¹. The koff on full-length Beclin1 (read-out: dissociation rate constant (kd)) was 0.000125 s⁻¹.

B1: DIRAS3 N-terminus peptides on the DIRAS3 peptide array (residues 15-33) (peptide, UniProt O95661 15-33, looked up)
peptide: KRLRLLPALLILRAFKPHR
notes: DIRAS3, residues 15-33 (N-terminus), a stretch covered by overlapping 15mer peptides of an array covering residues 1-229; The stretch is longer than one 15mer, so several overlapping array spots are meant; also called N-terminus of DIRAS3 (residues 15-33); source: synthetic peptide, SPOT synthesis on membrane (MultiPep RS robot)
For the molecule B1, the binding result in assay [1] is on record as “binds”.

B2: DIRAS3 switch II region peptide on the DIRAS3 peptide array (residues 93-107) (peptide, UniProt O95661 93-107, looked up)
peptide: KSGDGNRALQRHVIA
notes: source: synthetic peptide, SPOT synthesis on membrane (MultiPep RS robot)
In the case of B2, the binding result in assay [1] is “binds”.
